“And” between values parts separate entries of the source, which are not always exact repeats. Equal entries are not always repeated. Toxic doses and inconclusive results are not listed.
System: BDF1 mice, P388 leukemia ip, median survival T/C
Assay: NCI In Vivo Anticancer Drug Screen. Data for tumor model P388 Leukemia (intraperitoneal) in B6D2F1 (BDF1) mice
Details: endpoint: median survival time, higher = longer survival
In short: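 Antitumour effect was judged in vivo: survival in drug-treated mice, normalised to that of vehicle-dosed controls, gives the reported T/C.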

[1] = dose: 50.0 mg/kg/injection, schedule: Q01DX009 (ip), vehicle: Klucel (hydroxypropylcellulose) (HPC)
[2] = dose: 50.0 mg/kg/injection, schedule: Q04DX003 (ip), vehicle: saline
[3] = dose: 100.0 mg/kg/injection, schedule: Q01DX009 (ip), vehicle: Klucel (hydroxypropylcellulose) (HPC)
[4] = dose: 100.0 mg/kg/injection, schedule: Q04DX003 (ip), vehicle: saline
[5] = dose: 50.0 mg/kg/injection, schedule: Q01DX009 (ip), vehicle: saline with Tween-80
[6] = dose: 100.0 mg/kg/injection, schedule: Q01DX009 (ip), vehicle: saline with Tween-80
[7] = dose: 200.0 mg/kg/injection, schedule: Q04DX003 (ip), vehicle: saline
[8] = dose: 400.0 mg/kg/injection, schedule: Q04DX003 (ip), vehicle: saline
[9] = dose: 12.5 mg/kg/injection, schedule: Q01DX009 (ip), vehicle: saline
[10] = dose: 25.0 mg/kg/injection, schedule: Q01DX009 (ip), vehicle: saline
[11] = dose: 50.0 mg/kg/injection, schedule: Q01DX009 (ip), vehicle: saline
[12] = dose: 100.0 mg/kg/injection, schedule: Q04DX003 (ip), vehicle: saline with Tween-80
[13] = dose: 200.0 mg/kg/injection, schedule: Q04DX003 (ip), vehicle: saline with Tween-80
[14] = dose: 400.0 mg/kg/injection, schedule: Q04DX003 (ip), vehicle: saline with Tween-80
[15] = dose: 100.0 mg/kg/injection, schedule: Q01DX001 (ip), vehicle: saline with Tween-80
[16] = dose: 200.0 mg/kg/injection, schedule: Q01DX001 (ip), vehicle: saline with Tween-80

SMILES: O=C(CS)OCCOC(=O)CS
- T/C (dose: 25.0 mg/kg/injection, schedule: Q01DX009 (ip), vehicle: Klucel (hydroxypropylcellulose) (HPC)): 104 % of control
- T/C (dose: 25.0 mg/kg/injection, schedule: Q04DX003 (ip), vehicle: saline): 109 % of control
- T/C [1]: 100 % of control
- T/C [2]: 104 % of control
- T/C [3]: 95 % of control
- T/C [4]: 95 % of control

SMILES: C=C1CCC2C1C1C(C(C)C)CCC21C (stereo not given)
- T/C [5]: 105 % of control
- T/C [6]: 104 % of control

SMILES: OC1C=CC2C3C=CC(C3)C12 (stereo not given)
- T/C [4]: 96 % of control
- T/C [7]: 92 % of control
- T/C [8]: 103 % of control

SMILES: O=C1c2ccccc2C(=O)c2c(NCCNCCO)ccc(NCCNCCO)c21
- T/C (dose: 2.0 mg/kg/injection, schedule: Q01DX009 (ip), vehicle: water): 163 % of control
- T/C (dose: 3.12 mg/kg/injection, schedule: Q01DX009 (ip), vehicle: saline): 262 % of control and 403 % of control and 239 % of control
- T/C (dose: 4.0 mg/kg/injection, schedule: Q01DX009 (ip), vehicle: water): 111 % of control
- T/C (dose: 4.0 mg/kg/injection, schedule: Q04DX003 (ip), vehicle: saline with Tween-80): 154 % of control
- T/C (dose: 6.25 mg/kg/injection, schedule: Q01DX009 (ip), vehicle: saline): 502 % of control and 202 % of control and 189 % of control
- T/C (dose: 8.0 mg/kg/injection, schedule: Q01DX009 (ip), vehicle: water): 96 % of control
- T/C (dose: 8.0 mg/kg/injection, schedule: Q04DX003 (ip), vehicle: saline with Tween-80): 165 % of control
- T/C [9]: 503 % of control and 517 % of control
- T/C (dose: 13.0 mg/kg/injection, schedule: Q04DX003 (ip), vehicle: saline + alcohol): 222 % of control
- T/C (dose: 16.0 mg/kg/injection, schedule: Q04DX003 (ip), vehicle: saline with Tween-80): 165 % of control
- T/C (dose: 21.6 mg/kg/injection, schedule: Q04DX003 (ip), vehicle: saline + alcohol): 321 % of control
- T/C [10]: 517 % of control
- T/C (dose: 32.0 mg/kg/injection, schedule: Q04DX003 (ip), vehicle: saline with Tween-80): 192 % of control
- T/C (dose: 36.0 mg/kg/injection, schedule: Q04DX003 (ip), vehicle: saline + alcohol): 311 % of control
- T/C [11]: 74 % of control
- T/C (dose: 60.0 mg/kg/injection, schedule: Q04DX003 (ip), vehicle: saline + alcohol): 201 % of control
- T/C (dose: 64.0 mg/kg/injection, schedule: Q04DX003 (ip), vehicle: saline with Tween-80): 274 % of control

SMILES: Cc1ncc([N+](=O)[O-])n1CCSSCCn1c([N+](=O)[O-])cnc1C
- T/C [12]: 118 % of control
- T/C [13]: 118 % of control
- T/C [14]: 115 % of control

SMILES: CC1CC2C(CC1=O)C(C)(C)CCC2(C)C (stereo not given)
- T/C [3]: 109 % of control
- T/C (dose: 200.0 mg/kg/injection, schedule: Q01DX009 (ip), vehicle: Klucel (hydroxypropylcellulose) (HPC)): 104 % of control
- T/C (dose: 264.0 mg/kg/injection, schedule: Q04DX003 (ip), vehicle: Klucel (hydroxypropylcellulose) (HPC)): 104 % of control and 109 % of control
- T/C (dose: 400.0 mg/kg/injection, schedule: Q01DX009 (ip), vehicle: Klucel (hydroxypropylcellulose) (HPC)): 86 % of control
- T/C (dose: 400.0 mg/kg/injection, schedule: Q04DX003 (ip), vehicle: Klucel (hydroxypropylcellulose) (HPC)): 104 % of control

SMILES: O=C(O)C1CCC[N-]C1.O=C(O)C1CCC[N-]C1.[Cl][Pt+2][Cl] (stereo not given)
- T/C (dose: 5.0 mg/kg/injection, schedule: Q04DX003 (ip), vehicle: saline): 95 % of control
- T/C (dose: 10.0 mg/kg/injection, schedule: Q04DX003 (ip), vehicle: saline): 86 % of control
- T/C (dose: 20.0 mg/kg/injection, schedule: Q04DX003 (ip), vehicle: saline): 95 % of control

SMILES: Nc1ccc(C(=O)Nc2ccc(Nc3ccncc3)cc2)c([N+](=O)[O-])c1
- T/C [9]: 97 % of control
- T/C [10]: 97 % of control
- T/C [11]: 119 % of control
- T/C [2]: 94 % of control
- T/C (dose: 75.0 mg/kg/injection, schedule: Q01DX009 (ip), vehicle: saline): 90 % of control
- T/C (dose: 100.0 mg/kg/injection, schedule: Q01DX009 (ip), vehicle: saline): 108 % of control
- T/C [4]: 100 % of control
- T/C (dose: 200.0 mg/kg/injection, schedule: Q01DX009 (ip), vehicle: saline): 111 % of control
- T/C [7]: 92 % of control
- T/C (dose: 400.0 mg/kg/injection, schedule: Q01DX009 (ip), vehicle: saline): 111 % of control
- T/C [8]: 92 % of control

SMILES: CC(=O)OCCCC/C(=C/c1cc2ccccc2c2ccccc12)[N+](=O)[O-]
- T/C [1]: 100 % of control
- T/C [3]: 100 % of control

SMILES: CC(=O)N(C(C)=O)c1ccc(N=Nc2ccccc2C)cc1C
- T/C [5]: 90 % of control
- T/C [6]: 90 % of control
- T/C [12]: 95 % of control
- T/C (dose: 200.0 mg/kg/injection, schedule: Q01DX009 (ip), vehicle: saline with Tween-80): 86 % of control
- T/C [13]: 100 % of control
- T/C [14]: 100 % of control

SMILES: CC[n+]1ccc(Nc2ccc(/C=C/c3ccc4cc(Nc5cc[n+](CC)cc5)ccc4[n+]3CC)cc2)cc1
- T/C (dose: 2.5 mg/kg/injection, schedule: Q01DX009 (ip), vehicle: saline): 158 % of control and 161 % of control
- T/C (dose: 3.13 mg/kg/injection, schedule: Q01DX009 (oral), vehicle: saline): 86 % of control
- T/C (dose: 5.0 mg/kg/injection, schedule: Q01DX009 (ip), vehicle: saline): 177 % of control and 187 % of control
- T/C (dose: 6.25 mg/kg/injection, schedule: Q01DX009 (oral), vehicle: saline): 93 % of control
- T/C (dose: 10.0 mg/kg/injection, schedule: Q01DX009 (ip), vehicle: saline): 229 % of control and 239 % of control
- T/C (dose: 12.5 mg/kg/injection, schedule: Q01DX009 (oral), vehicle: saline): 86 % of control
- T/C (dose: 25.0 mg/kg/injection, schedule: Q01DX009 (oral), vehicle: saline): 86 % of control

SMILES: CN(C)C
- T/C [2]: 100 % of control
- T/C [4]: 100 % of control
- T/C [7]: 109 % of control

SMILES: CCCCNC(=O)Nc1ccc(N(CC)CC)cc1
- T/C [12]: 100 % of control
- T/C [13]: 100 % of control
- T/C [14]: 90 % of control

SMILES: CCOC(=O)Nc1cc(NCC(=O)c2ccc(C(F)(F)F)cc2)c([N+](=O)[O-])c(N)n1
- T/C (dose: 50.0 mg/kg/injection, schedule: Q01DX001 (ip), vehicle: saline with Tween-80): 94 % of control
- T/C [15]: 105 % of control
- T/C [16]: 105 % of control

SMILES: Cc1ccccc1NC(=O)c1ccc([N+](=O)[O-])cc1
- T/C [12]: 96 % of control
- T/C [13]: 108 % of control
- T/C [14]: 96 % of control

SMILES: C(CC1CO1)CC1OC1CC1CO1 (stereo not given)
- T/C (dose: 65.0 mg/kg/injection, schedule: Q04DX003 (ip), vehicle: saline): 113 % of control
- T/C (dose: 67.0 mg/kg/injection, schedule: Q04DX003 (ip), vehicle: saline with Tween-80): 113 % of control
- T/C [12]: 122 % of control
- T/C [4]: 109 % of control
- T/C (dose: 150.0 mg/kg/injection, schedule: Q04DX003 (ip), vehicle: saline with Tween-80): 181 % of control
- T/C (dose: 150.0 mg/kg/injection, schedule: Q04DX003 (ip), vehicle: saline): 154 % of control
- T/C (dose: 225.0 mg/kg/injection, schedule: Q04DX003 (ip), vehicle: saline with Tween-80): 181 % of control

SMILES: Cc1ccc(S(=O)(=O)CC#CCOc2ccccc2)cc1
- T/C [2]: 100 % of control
- T/C [4]: 100 % of control
- T/C [7]: 104 % of control

SMILES: CC(C)=CC=O
- T/C [15]: 100 % of control
- T/C [16]: 96 % of control
- T/C (dose: 400.0 mg/kg/injection, schedule: Q01DX001 (ip), vehicle: saline with Tween-80): 100 % of control

SMILES: CC(=O)Oc1cccnc1C(C#N)C#N
- T/C (dose: 50.0 mg/kg/injection, schedule: Q01DX005 (ip), vehicle: saline with Tween-80): 92 % of control

SMILES: CCCSc1ncnc2nc(C)[nH]c12
- T/C (dose: 0.39 mg/kg/injection, schedule: Q01DX009 (ip), vehicle: saline with Tween-80): 100 % of control
- T/C (dose: 0.78 mg/kg/injection, schedule: Q01DX009 (ip), vehicle: saline with Tween-80): 109 % of control
- T/C (dose: 1.56 mg/kg/injection, schedule: Q01DX009 (ip), vehicle: saline with Tween-80): 100 % of control and 122 % of control
- T/C (dose: 3.13 mg/kg/injection, schedule: Q01DX009 (ip), vehicle: saline with Tween-80): 95 % of control and 100 % of control
- T/C (dose: 6.25 mg/kg/injection, schedule: Q01DX009 (ip), vehicle: saline with Tween-80): 103 % of control
- T/C (dose: 12.5 mg/kg/injection, schedule: Q01DX009 (ip), vehicle: saline with Tween-80): 103 % of control

SMILES: O=C(NC(=O)c1c(F)cccc1F)Nc1nc(-c2ccccc2)cs1
- T/C (dose: 25.0 mg/kg/injection, schedule: Q01DX009 (ip), vehicle: saline with Tween-80): 93 % of control
- T/C [5]: 100 % of control
- T/C [6]: 90 % of control
